From the COVID Moonshot data (paper PMC11187573), “Identification of SARS-CoV-2 Mpro inhibitors through deep reinforcement learning for de novo drug design and computational chemistry approaches” (RSC Medicinal Chemistry, 2024)

What was measured:
[1] = target: SARS-CoV-2 Main Protease (SARS-CoV-2) (UniProt P0DTD1)
Procedure: Compounds were seeded into assay-ready plates (Greiner 384 low volume, cat 784900) using an Echo 555 acoustic dispenser, and DMSO was back-filled for a uniform concentration in assay plates (DMSO concentration maximum 1%) Screening assays were performed in duplicate at 20µM and 50µM. […] Dose response assays were performed in 12 point dilutions of 2-fold, typically beginning at 100µM. […] Reagents for Mpro assay were dispensed into the assay plate in 10µl volumes for a final volume of 20µL.
Mpro was pre-incubated for 15 minutes at room temperature with compound before addition of substrate and a further 30 minute incubation. Protease reaction was measured in a BMG Pherastar FS with a 480/520 ex/em filter set. Raw data was mapped and normalized to high (Protease with DMSO) and low (No Protease) controls using Genedata Screener software.

[2] = target: SARS-CoV-2 Main Protease (SARS-CoV-2) (UniProt P0DTD1); remark: listed apart in the source

Structure (SMILES): Cc1cc(Cl)cc(NC(=O)Nc2cccnc2)c1
- relative solubility at 20 uM: 1
- relative solubility at 100 uM: 1
- inhibition ([1]; 50.0 µM): 12.7%
- inhibition ([2]; 20.0 µM): 0%
- inhibition ([2]; 50.0 µM): 35.4%

Structure (SMILES): C=CC(=O)N(c1ccc(C(C)(C)C)cc1)C(C(=O)NCCc1cccc(F)c1)c1cncc(Cl)c1 (configuration not stated)
- relative solubility at 20 uM: 0.71
- relative solubility at 100 uM: 0.32
- inhibition ([1]; 20.0 µM): 24.2%
- inhibition ([1]; 50.0 µM): 57.9%
- IC50 [2]: 2.11 µM
- inhibition ([2]; 50.0 µM): 60.6%

Structure (SMILES): C=CC(=O)N(c1ccc(C(C)(C)C)cc1)C(C(=O)NCCC(=O)OCC)c1cccnc1 (configuration not stated)
- relative solubility at 20 uM: 0.99
- relative solubility at 100 uM: 0.97
- inhibition ([1]; 20.0 µM): 27.8%
- inhibition ([1]; 50.0 µM): 46.3%
- inhibition ([2]; 20.0 µM): 12.3%
- inhibition ([2]; 50.0 µM): 43.7%

Structure (SMILES): N#Cc1cccc(NC(=O)Nc2cncc(N)c2)c1
- relative solubility at 20 uM: 1
- relative solubility at 100 uM: 1
- inhibition ([1]; 50.0 µM): 57.2%
- inhibition ([2]; 20.0 µM): 9.09%
- inhibition ([2]; 50.0 µM): 48.4%

Structure (SMILES): COc1ccccc1OCCNC(=O)c1cc(=O)[nH]c2ccccc12
- relative solubility at 20 uM: 0.99
- relative solubility at 100 uM: 0.96
- IC50 [1]: 7.23 µM
- inhibition ([1]; 20.0 µM): 83.7%
- inhibition ([1]; 50.0 µM): 92.7%
- IC50 [2]: 3.46 µM
- inhibition ([2]; 20.0 µM): 70.1%
- inhibition ([2]; 50.0 µM): 83.8%

Structure (SMILES): Cc1ccncc1NS(=O)(=O)Cc1cccc(Cl)c1
- relative solubility at 20 uM: 1
- relative solubility at 100 uM: 0.99
- inhibition ([1]; 20.0 µM): 4.3%
- inhibition ([1]; 50.0 µM): 9.77%
- inhibition ([2]; 50.0 µM): 19%

Structure (SMILES): C=CC(=O)N(c1ccc(C(C)(C)C)cc1)C(C(=O)NC(C)(C)C)c1cccnc1C (configuration not stated)
- relative solubility at 20 uM: 0.99
- relative solubility at 100 uM: 0.99
- inhibition ([1]; 20.0 µM): -1.34%
- inhibition ([1]; 50.0 µM): 2.24%
- inhibition ([2]; 20.0 µM): 0%
- inhibition ([2]; 50.0 µM): 0%

Structure (SMILES): C=CC(=O)N(c1ccc(N(C)C)c(C)c1)C(C(=O)Nc1ccc(OC)cc1C)c1cccnc1 (configuration not stated)
- relative solubility at 20 uM: 0.87
- relative solubility at 100 uM: 0.83
- inhibition ([1]; 20.0 µM): 2.51%
- inhibition ([1]; 50.0 µM): 7.01%
- inhibition ([2]; 20.0 µM): 0%

Structure (SMILES): C=CC(=O)N1CCN(C(=O)c2cccc(Cl)c2)CC1
- relative solubility at 20 uM: 0.99
- relative solubility at 100 uM: 0.99
- inhibition ([1]; 50.0 µM): 5.55%
- inhibition ([2]; 20.0 µM): 0%
- inhibition ([2]; 50.0 µM): 0%

Structure (SMILES): CCCC(C(=O)Nc1cnccc1C)c1cccc(Cl)c1 (configuration not stated)
- relative solubility at 20 uM: 1
- relative solubility at 100 uM: 0.99
- inhibition ([1]; 20.0 µM): 77.9%
- inhibition ([1]; 50.0 µM): 90.6%
- IC50 [2]: 5.48 µM
- inhibition ([2]; 50.0 µM): 78.3%

Structure (SMILES): COc1ccccc1OC(C)CNC(=O)c1cc(=O)[nH]c2cc(F)ccc12 (configuration not stated)
- relative solubility at 20 uM: 1
- relative solubility at 100 uM: 0.99
- inhibition ([1]; 20.0 µM): 20%
- inhibition ([1]; 50.0 µM): 59%
- inhibition ([2]; 50.0 µM): 5.65%

Structure (SMILES): Cc1ccncc1NC(=O)CC(C)C(C)C (configuration not stated)
- relative solubility at 20 uM: 1
- relative solubility at 100 uM: 1
- inhibition ([1]; 20.0 µM): -5.58%
- inhibition ([1]; 50.0 µM): 29.2%
- inhibition ([2]; 50.0 µM): 6.99%

Structure (SMILES): Cc1ccncc1NC(=O)Nc1cccc(Cl)c1
- relative solubility at 20 uM: 0.99
- relative solubility at 100 uM: 0.96
- inhibition ([1]; 20.0 µM): 32.1%
- inhibition ([1]; 50.0 µM): 58.7%
- IC50 [2]: 45.7 µM
- inhibition ([2]; 20.0 µM): 25.6%
- inhibition ([2]; 50.0 µM): 64.1%

Structure (SMILES): CC(NC(=O)C(Cc1ccccc1)NC(=O)c1ccco1)c1ncco1 (configuration not stated)
- relative solubility at 20 uM: 1
- relative solubility at 100 uM: 1
- inhibition ([1]; 50.0 µM): -28%
- inhibition ([2]; 20.0 µM): 0%
- inhibition ([2]; 50.0 µM): 0%

Structure (SMILES): O=C(c1cc(=O)[nH]c2ccccc12)N1CCN(c2ccc(F)cc2)CC1
- relative solubility at 20 uM: 0.99
- relative solubility at 100 uM: 0.99
- inhibition ([1]; 20.0 µM): 57%
- inhibition ([1]; 50.0 µM): 78.5%
- IC50 [2]: 52.7 µM
- inhibition ([2]; 50.0 µM): 52.3%

Structure (SMILES): COc1ccc2[nH]cc(CCNC(C)=O)c2c1
- relative solubility at 20 uM: 1
- relative solubility at 100 uM: 0.99
- inhibition ([1]; 20.0 µM): 1.37%
- inhibition ([1]; 50.0 µM): -0.962%
- inhibition ([2]; 20.0 µM): 0%

Structure (SMILES): N#CC(C(=O)Nc1ccccc1)C(=O)c1cccc(Cl)c1 (configuration not stated)
- relative solubility at 20 uM: 0.98
- relative solubility at 100 uM: 0.98
- inhibition ([1]; 20.0 µM): 24.1%
- inhibition ([1]; 50.0 µM): 44%
- inhibition ([2]; 20.0 µM): 0%
- inhibition ([2]; 50.0 µM): 0%

Structure (SMILES): Cn1cncc1CNC(=O)Nc1cccc(OCC(F)F)n1
- relative solubility at 20 uM: 1
- relative solubility at 100 uM: 1
- inhibition ([1]; 50.0 µM): 36.2%
- inhibition ([2]; 20.0 µM): 0%
- inhibition ([2]; 50.0 µM): 28.4%

Structure (SMILES): O=C(NCc1cnccn1)c1sc2cccc(F)c2c1COc1ccccc1
- relative solubility at 20 uM: 0.95
- relative solubility at 100 uM: 0.44
- inhibition ([1]; 20.0 µM): -1.73%
- inhibition ([1]; 50.0 µM): 6.32%
- inhibition ([2]; 20.0 µM): 0%
- inhibition ([2]; 50.0 µM): -0.855%

Structure (SMILES): O=C(Cc1cccc(Cl)c1)Nc1cnns1
- relative solubility at 20 uM: 0.99
- relative solubility at 100 uM: 0.99
- inhibition ([1]; 20.0 µM): 4.12%
- inhibition ([1]; 50.0 µM): 3.34%
- inhibition ([2]; 50.0 µM): 48.7%

Structure (SMILES): Cc1cnc(CC(=O)Nc2cccnc2)o1
- relative solubility at 20 uM: 0.99
- relative solubility at 100 uM: 1
- inhibition ([1]; 50.0 µM): -9.91%
- inhibition ([2]; 20.0 µM): 0%
- inhibition ([2]; 50.0 µM): 0%

Structure (SMILES): CC(=O)N1CCN(S(=O)(=O)c2ccsc2)CC1
- relative solubility at 20 uM: 0.99
- relative solubility at 100 uM: 1
- inhibition ([1]; 50.0 µM): -20.6%
- inhibition ([2]; 20.0 µM): 0%
- inhibition ([2]; 50.0 µM): 3.62%

Structure (SMILES): COc1ccnc(NC(=O)Cc2ccc3ccccc3c2)c1
- relative solubility at 20 uM: 0.95
- relative solubility at 100 uM: 0.91
- inhibition ([1]; 20.0 µM): 3.47%
- inhibition ([1]; 50.0 µM): 6.09%
- inhibition ([2]; 20.0 µM): 0%
- inhibition ([2]; 50.0 µM): 17.1%

Structure (SMILES): Cc1ccnc(C)c1NC(=O)C1CC2CC2C1 (configuration not stated)
- relative solubility at 20 uM: 1
- relative solubility at 100 uM: 1
- inhibition ([1]; 20.0 µM): 10.2%
- inhibition ([1]; 50.0 µM): 15.6%
- inhibition ([2]; 50.0 µM): 0%

Structure (SMILES): NS(=O)(=O)CCc1ccccc1CN1CCN(C(=O)CCl)CC1
- relative solubility at 20 uM: 1
- relative solubility at 100 uM: 1
- inhibition ([1]; 20.0 µM): 101%
- inhibition ([1]; 50.0 µM): 103%
- IC50 [2]: 0.834 µM
- inhibition ([2]; 50.0 µM): 100%

Structure (SMILES): Cc1ccncc1-c1nc(-c2cccc(Cl)c2)no1
- relative solubility at 20 uM: 1
- relative solubility at 100 uM: 0.99
- inhibition ([1]; 20.0 µM): 3.58%
- inhibition ([1]; 50.0 µM): 5.25%
- inhibition ([2]; 50.0 µM): 22.9%

Structure (SMILES): Cc1ccc(C)c(N(C)C(=O)Cc2cnn(C)c2C)c1
- relative solubility at 20 uM: 0.97
- relative solubility at 100 uM: 0.98
- inhibition ([1]; 20.0 µM): 7.75%
- inhibition ([1]; 50.0 µM): 11.4%
- inhibition ([2]; 50.0 µM): 0%

Structure (SMILES): C=CC(=O)N(c1ccc(C(C)C)nc1)C(C(=O)Nc1c(C)cccc1CC)c1cccnc1 (configuration not stated)
- relative solubility at 20 uM: 1
- relative solubility at 100 uM: 0.95
- inhibition ([1]; 20.0 µM): 5.61%
- inhibition ([1]; 50.0 µM): 12.5%
- inhibition ([2]; 20.0 µM): 0%

Structure (SMILES): CC(C)(C)NC(=O)C(c1cccnc1)N(C(=O)c1ccco1)c1ccc(C(C)(C)C)cc1 (configuration not stated)
- relative solubility at 20 uM: 1.01
- relative solubility at 100 uM: 0.99
- inhibition ([1]; 20.0 µM): 74%
- inhibition ([1]; 50.0 µM): 86.6%
- inhibition ([2]; 50.0 µM): 23.9%

Structure (SMILES): O=C(c1cc(=O)[nH]c2ccccc12)N1CCN(c2ccccc2)CC1
- relative solubility at 20 uM: 1
- relative solubility at 100 uM: 1
- inhibition ([1]; 50.0 µM): 54.1%
- IC50 [2]: 10.4 µM
- inhibition ([2]; 20.0 µM): 66.6%
- inhibition ([2]; 50.0 µM): 78.8%

Structure (SMILES): N#Cc1cncc(NC(=O)Nc2cccnc2)c1
- relative solubility at 20 uM: 1
- relative solubility at 100 uM: 1
- inhibition ([1]; 20.0 µM): 7.07%
- inhibition ([1]; 50.0 µM): 17.1%
- inhibition ([2]; 50.0 µM): 17.4%

Structure (SMILES): Cc1nnn(NC(=O)Cc2cccc(Cl)c2)c1C
- relative solubility at 20 uM: 1
- relative solubility at 100 uM: 1.01
- inhibition ([1]; 20.0 µM): 39.6%
- inhibition ([1]; 50.0 µM): 70.4%
- IC50 [2]: 73.4 µM
- inhibition ([2]; 50.0 µM): 28.7%

Structure (SMILES): C=CC(=O)N1CCN(Cc2cc(Cl)cc3ccccc23)CC1
- relative solubility at 20 uM: 0.86
- relative solubility at 100 uM: 0.75
- inhibition ([1]; 50.0 µM): 37.9%
- inhibition ([2]; 20.0 µM): 0%
- inhibition ([2]; 50.0 µM): 0%

Structure (SMILES): Cc1ccncc1NC(=O)CC(O)C1CC1 (configuration not stated)
- relative solubility at 20 uM: 1
- relative solubility at 100 uM: 1.01
- inhibition ([1]; 20.0 µM): -48%
- inhibition ([1]; 50.0 µM): 1.39%
- inhibition ([2]; 50.0 µM): 2.72%

Structure (SMILES): O=C1Nc2ccc(Br)cc2C1=O
- relative solubility at 20 uM: 1
- relative solubility at 100 uM: 0.99
- inhibition ([1]; 20.0 µM): -2.12%
- inhibition ([1]; 50.0 µM): -1.05%
- IC50 [2]: 30.3 µM
- inhibition ([2]; 50.0 µM): 66.1%

Structure (SMILES): O=C(Nc1cccc(-c2cc[nH]n2)c1)C(O)c1cccnc1 (configuration not stated)
- relative solubility at 20 uM: 1
- relative solubility at 100 uM: 1
- inhibition ([1]; 50.0 µM): 10.4%
- inhibition ([2]; 20.0 µM): 0%
- inhibition ([2]; 50.0 µM): 0%

Structure (SMILES): O=C1CC(c2cccc(NC(=O)Cc3cncnc3)c2)CN1 (configuration not stated)
- relative solubility at 20 uM: 1
- relative solubility at 100 uM: 1
- inhibition ([1]; 20.0 µM): 3.83%
- inhibition ([1]; 50.0 µM): 10.8%
- inhibition ([2]; 50.0 µM): 0%

Structure (SMILES): Cc1nnn(C)c1NC(=O)Cc1cccc(Cl)c1
- relative solubility at 20 uM: 1
- relative solubility at 100 uM: 1
- inhibition ([1]; 20.0 µM): -9.24%
- inhibition ([1]; 50.0 µM): -12.3%
- inhibition ([2]; 50.0 µM): 5.47%
